According to patent US20240423937A1, “METHODS OF TREATING PAIN AND USES THEREOF” (University of Tennessee Research Foundation, priority 2021, published 2024):
“Also recorded” adds a separate entry of the source. Where two headings read alike, the source gives them in different places.

How the values were obtained:
CACNA2D2 = CACNA2D2 (Homo sapiens, UniProt Q9NY47); conditions: cited from earlier work
[1] = Topical pregabalin IOP lowering, aqueous / without microemulsion; format: in vivo
Excerpt: As a bidirectional component of our study, we corroborated an imputed single-nucleotide polymorphism (SNP) in CACNA2D1 within a human POAG population. Immunohistochemistry studies in humans, rabbits, and mice indicate that CACNA2D1 is located in the ciliary body (CB) and outflow structures (FIG. 2), both of which can influence IOP. […] These findings are consistent with earlier findings that implicated Ca^2+ flux as a regulator of IOP through actions in both the CB and outflow structures^13,14. This is highly significant because few approved IOP-lowering drugs act on both the inflow and outflow facilities, and that we can be able to clarify the implicated but yet unproven role of Ca^2+ flux on inflow and outflow control. On the therapeutic side, because the amplitude and duration of PRG-mediated IOP reduction in our studies were limited (17% IOP reduction that returns to baseline at 6 hr)^15, we then engineered a new topical extended release microemulsion (ME) formulation to increase PRG efficacy and duration of action^12. […] These findings indicate the development of PRG as a new class of glaucoma therapeutics with a MOA distinct from current approved IOP-lowering medications.
However, the amplitude and duration of response were limited and unpractical for clinical use. To increase the efficacy of PRG as an IOP-lowering drug, we engineered a new microemulsion topical formulation^12. Our formulation was designed as a water-in-oil-in water microemulsion with 40% and 60% of the PRG in the innermost and outermost aqueous phases, respectively. Compartmentalization of PRG in two aqueous phases supports both a rapid onset and long duration of IOP-lowering action. Drug release from the outermost aqueous phase is fast, allowing for rapid IOP reduction. To be released from the innermost aqueous phase, however, PRG must pass through two interfaces—the inner water/oil interface and the outer oil/water interface—after which it must diffuse through the viscous polymer solution that constitutes the outmost aqueous phase of our multilayered ME (FIG. 12). Collectively the movement across both interfaces slows movement of PRG from our formulation and supports the extended IOP-lowering effect. After diffusion from the outermost polymer, PRG is available for absorption through the cornea. To ensure that the formulation will remain on the corneal surface for enough time to allow for the sustained release of the drug, the outermost hydrogel layer is prepared from Carbopol 981, which has excellent bio-adhesive properties.

CACNA2D1 = CACNA2D1 (Homo sapiens, UniProt P54289); conditions: cited from earlier work
[2] = not told; cited from earlier work
[3] = tested on: γ-aminobutyric acid (GABA) receptors; conditions: cited from earlier work
Dutch belted rabbits = experiment: Single topical dose IOP lowering in Dutch belted rabbits; format: in vivo, rabbit; conditions: single drop
Protocol: Non-limiting exemplary data: We made a discovery that can make PRG effective in treating vision loss in glaucoma. In addition to its presence in the anterior segment (FIG. 2), CACNA2D1 is also localized to RGCs (FIGS. 3A&B), as well as the ON (FIG. 3C). […] At 24 hours after dosing, IOP is still reduced by >20%.
Moreover, the combined effect of all three layers of our W/O/W ME is critical for enhancing the efficacy of PRG. […] Using this same model, we will evaluate our optimized formulations from Test 1.1.
Research Design and Methods: Dutch belted rabbits (Envigo Rabbitry; formerly Covance) will be used in this single-dose design study. Rabbits from this rabbitry can have higher baseline IOP values than those purchased from other rabbitries. Rabbits (equally balanced between males and females) will be acclimated to handling and IOP measurements for at least seven days before initiation of the study. Slit-lamp biomicroscopic and fundoscopic examinations will be performed before and after the study. Our top three formulations from Test 1.1 will be tested in this model using our methods^12. The IOP of both eyes will be measured using a rebound tonometer (Tono-Pen AVIA Vet, Reichert) immediately before the formulation application (baseline, 8 am) and at hourly time intervals after application until the IOP returns to baseline. Using a sterile micropipette tip, thirty microliters of the formulation containing PRG ME or blank control will be instilled topically into one eye of each rabbit, while the fellow eye will receive the formulation vehicle, and therefore serve as controls. Rabbits will be dosed daily at 8 am for 21 days, and IOP collected at 8 am (immediately pre-dosing) and at the time at which the maximum IOP reduction is measured (Tmax) using our methods^12. Curves similar to FIG. 16 will be generated. Biocompatibility of the antioxidant-containing formulations will be assessed using with slit lamp biomicroscopy as in FIG. 17. […]

BXD29 mice = experiment: Daily topical dosing of BXD29 mice for 6 weeks (IOP, optic nerve axons); format: in vivo, mouse
Excerpt: Objective: An obstacle in this study is the in vivo assessment of any direct neuroprotective effects of PRG that are independent of IOP lowering. […] These characteristics make BXD29 ideal for evaluating the direct neuroprotective properties of PRG on RGCs by eliminating indirect effects that would be mediated through IOP reduction.
We have evidence to show, without wishing to be bound by theory, that topical dosing with our PRG ME is neuroprotective to RGC axons in the ON. We dosed BXD29 mice daily with PRG ME beginning at 5 weeks of age (FIG. 9A) before ON degeneration was marked. […] In contrast, ON from mice dosed with unmedicated ME had loss of axon profiles and increased areas of debris (FIG. 9C). The studies will evaluate the role of PRG as a RGC neuroprotectant and define its cellular mechanism of action.

[4] = topical aqueous / initial PRG formulation
[5] = with versus without the microemulsion, species not stated

Chain of CACNA2D1 (P54289 25-1103): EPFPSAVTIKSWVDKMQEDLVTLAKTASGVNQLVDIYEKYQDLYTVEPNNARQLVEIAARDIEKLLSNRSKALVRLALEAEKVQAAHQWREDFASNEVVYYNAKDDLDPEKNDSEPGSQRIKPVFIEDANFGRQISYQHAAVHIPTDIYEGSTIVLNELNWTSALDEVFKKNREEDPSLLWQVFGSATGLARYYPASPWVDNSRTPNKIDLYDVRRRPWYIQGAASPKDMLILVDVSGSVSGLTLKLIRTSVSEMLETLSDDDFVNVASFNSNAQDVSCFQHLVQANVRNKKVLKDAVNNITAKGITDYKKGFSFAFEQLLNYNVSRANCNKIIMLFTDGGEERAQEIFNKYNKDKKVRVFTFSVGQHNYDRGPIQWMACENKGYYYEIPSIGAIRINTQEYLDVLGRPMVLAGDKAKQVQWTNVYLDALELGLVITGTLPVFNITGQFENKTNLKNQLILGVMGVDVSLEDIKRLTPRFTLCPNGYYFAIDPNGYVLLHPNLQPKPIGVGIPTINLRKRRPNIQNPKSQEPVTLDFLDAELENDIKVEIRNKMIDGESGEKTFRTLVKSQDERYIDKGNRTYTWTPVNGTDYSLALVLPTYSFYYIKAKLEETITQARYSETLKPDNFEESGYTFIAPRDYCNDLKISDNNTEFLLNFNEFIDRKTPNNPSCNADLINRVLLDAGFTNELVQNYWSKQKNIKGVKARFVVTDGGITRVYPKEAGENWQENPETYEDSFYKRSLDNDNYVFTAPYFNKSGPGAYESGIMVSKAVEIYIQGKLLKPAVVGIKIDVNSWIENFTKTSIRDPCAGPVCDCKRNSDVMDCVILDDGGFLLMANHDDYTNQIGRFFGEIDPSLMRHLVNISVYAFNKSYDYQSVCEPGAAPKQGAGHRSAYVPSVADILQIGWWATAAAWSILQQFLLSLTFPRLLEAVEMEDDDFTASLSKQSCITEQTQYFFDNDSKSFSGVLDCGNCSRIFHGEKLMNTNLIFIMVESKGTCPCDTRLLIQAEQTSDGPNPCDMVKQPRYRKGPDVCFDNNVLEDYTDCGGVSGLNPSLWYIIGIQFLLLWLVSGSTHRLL
Chain of CACNA2D2 (Q9NY47 19-1150, species assumed): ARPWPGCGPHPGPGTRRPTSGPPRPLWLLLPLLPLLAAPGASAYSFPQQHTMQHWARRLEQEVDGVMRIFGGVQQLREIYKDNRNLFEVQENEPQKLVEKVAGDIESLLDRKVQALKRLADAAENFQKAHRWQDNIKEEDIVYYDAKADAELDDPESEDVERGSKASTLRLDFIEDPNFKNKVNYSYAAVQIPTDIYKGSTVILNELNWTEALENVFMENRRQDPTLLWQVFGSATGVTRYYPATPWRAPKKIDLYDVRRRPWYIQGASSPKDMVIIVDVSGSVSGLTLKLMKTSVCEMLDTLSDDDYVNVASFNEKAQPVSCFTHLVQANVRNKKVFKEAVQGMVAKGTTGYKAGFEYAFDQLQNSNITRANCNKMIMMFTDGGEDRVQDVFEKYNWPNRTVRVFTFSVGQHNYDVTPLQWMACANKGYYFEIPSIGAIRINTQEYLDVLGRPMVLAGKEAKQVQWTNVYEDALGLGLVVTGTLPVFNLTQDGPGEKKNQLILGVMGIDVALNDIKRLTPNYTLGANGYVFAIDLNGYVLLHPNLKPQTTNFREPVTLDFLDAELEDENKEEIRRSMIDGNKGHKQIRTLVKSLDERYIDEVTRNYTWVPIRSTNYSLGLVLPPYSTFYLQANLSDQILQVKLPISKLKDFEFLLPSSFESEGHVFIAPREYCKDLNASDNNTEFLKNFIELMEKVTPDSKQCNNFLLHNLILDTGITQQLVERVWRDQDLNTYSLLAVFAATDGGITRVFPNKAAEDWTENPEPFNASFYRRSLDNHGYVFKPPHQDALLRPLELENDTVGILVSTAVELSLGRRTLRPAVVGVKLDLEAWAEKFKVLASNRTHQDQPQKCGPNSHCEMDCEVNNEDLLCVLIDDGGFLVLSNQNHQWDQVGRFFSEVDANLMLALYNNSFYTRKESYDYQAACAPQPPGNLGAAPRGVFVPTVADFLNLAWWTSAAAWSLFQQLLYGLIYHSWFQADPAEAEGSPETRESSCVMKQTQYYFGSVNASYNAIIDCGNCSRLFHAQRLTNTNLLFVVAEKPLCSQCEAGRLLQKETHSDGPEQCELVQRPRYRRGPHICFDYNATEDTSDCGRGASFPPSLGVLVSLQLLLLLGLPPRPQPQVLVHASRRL

## CC(C)C[C@H](CN)CC(=O)O [pregabalin]
CACNA2D2
  binding to CACNA2D2: bind
[1]; [4]
  IOP reduction: 17%
  return of IOP to baseline after dosing: 6 h
[1]; topical dosing
  dose dependence of IOP lowering: dose dependent manner
[1]; [5]
  IOP lowering: about 20%
  return of IOP to baseline after dosing: 8 to 10 h
CACNA2D1
  affinity / specificity for CACNA2D1: antagonist with specificity for CACNA2D1 and high specificity for CACNA2D1 and bind
CACNA2D1; listed as PRG
  affinity / specificity for CACNA2D1: high affinity and specificity; also recorded: binds with high affinity
CACNA2D1; listed as Pregabalin
  affinity / specificity for CACNA2D1: high affinity and specificity
[2]
  membrane permeability: high membrane permeability
[3]
  binding to GABA receptors: does not bind
Dutch belted rabbits
  AUC of IOP reduction: 38 mmHg·hr
  maximal % reduction in IOP: 30%
  time at which IOP returns to baseline: 10 h
BXD29 mice; daily topical dosing for 6 weeks from 5 weeks of age
  optic nerve axon preservation: prevents degeneration of axons in the ON even in the absence of a reduction in IOP
BXD29 mice; topical, up to 6 weeks of daily dosing
  IOP response of BXD29 mice: unresponsive
